For test [1], the system named is Shigella. The settings on record: humans, recent study (16); cited from earlier work.
Test [2] has as its system C. jejuni 81-176. As to the kind of experiment: Determination of a post-infectious phenotype (stool form, % stool weight) 3 months after C. jejuni clearance. It counts as in vivo, Male Sprague-Dawley rats. The procedure:
Male Sprague-Dawley rats (n=108) (200g) were quarantined for 10 days. Subsequently, fresh stool was collected by stroking the anus. Stool was cultured for C. jejuni on Campylobacter agar (BD Diagnostics, Franklin Lakes, N.J.). This was conducted to confirm the absence of infection or colonization of animals with C. jejuni prior to starting the study. […] In the first group (n=54), the rats were gavaged with 1 mL of a 5% solution of bicarbonate. This was given to acutely reduce gastric acidity. Subsequently, the rats were gavaged with a 1 mL suspension of 10^8 cfu/mL C. jejuni 81-176 in Campylobacter broth (C+/R− group). In the second group (n=54), the rats were gavaged with a 1 mL solution of rifaximin (200 mg) (C+/R+ group). The following day, the C+/R+ group received 3 sequential gavages. The first was another 1 mL dose of rifaximin. One hour later, they were gavaged with a 1 mL solution of 5% bicarbonate followed by a third gavage consisting of a 1 mL suspension of 10^8 cfu/mL C. jejuni 81-176 in Campylobacter broth. The following day, the C+/R+ group received a third and final gavage of 200 mg of rifaximin. After C. jejuni clearance was determined, the rats were housed for an additional 3 months (90 days). At 90 days, fresh stool was collected for 3 consecutive days. The stool was graded for consistency. To do this, a modified Bristol-like stool score was used. In this score, stool was graded as normal (1), soft and poorly formed (2), or watery (3). The stool was then weighed and air dried for 5 days followed by oven drying at 160° C. for 1 hour. The stool was reweighed and a % stool wet weight was determined. After completion of the study, the rats were euthanized by CO2 asphyxiation, weighed, and a laparotomy was performed. During the laparotomy, predefined segments of duodenum, jejunum, ileum, left colon, and rectum were resected, as previously described (12). Subsequently, the contents of each segment were cultured for the presence of C. jejuni. At the end of 3 months, the stool form for 3 days was averaged and then the two groups were compared. In another analysis, the number of days with normal stool in 3 days was determined and compared between groups. Finally, the variance in stool form over 3 days was also determined and compared between groups. The comparison was done by Wilcoxon rank-sum test.

In test [3] the test system is C. jejuni 81-176. The experiment in a line: Tracking the acute colonization with C. jejuni in stool of gavaged rats. The test is classed as in vivo, Male Sprague-Dawley rats. The procedure: Male Sprague-Dawley rats (n=108) (200g) were quarantined for 10 days. Subsequently, fresh stool was collected by stroking the anus. Stool was cultured for C. jejuni on Campylobacter agar (BD Diagnostics, Franklin Lakes, N.J.). This was conducted to confirm the absence of infection or colonization of animals with C. jejuni prior to starting the study. […] In the first group (n=54), the rats were gavaged with 1 mL of a 5% solution of bicarbonate. This was given to acutely reduce gastric acidity. Subsequently, the rats were gavaged with a 1 mL suspension of 10^8 cfu/mL C. jejuni 81-176 in Campylobacter broth (C+/R− group). In the second group (n=54), the rats were gavaged with a 1 mL solution of rifaximin (200 mg) (C+/R+ group). The following day, the C+/R+ group received 3 sequential gavages. The first was another 1 mL dose of rifaximin. One hour later, they were gavaged with a 1 mL solution of 5% bicarbonate followed by a third gavage consisting of a 1 mL suspension of 10^8 cfu/mL C. jejuni 81-176 in Campylobacter broth. The following day, the C+/R+ group received a third and final gavage of 200 mg of rifaximin. After completion of the gavage, fresh stool was collected daily from all rats (both groups) and cultured for the presence of C. jejuni on Campylobacter agar. The number of days to first detectable C. jejuni in stool was recorded. Once colonization was noted, daily stool was cultured until 2 consecutive days with no detectable C. jejuni was observed. This was recorded as the time to C. jejuni clearance. In the post-infectious phase, the time to initial colonization, time for clearance and total duration of shedding were determined and compared between the C+/R− and C+/R+ groups. This was compared by Wilcoxon rank-sum test.

In the case of `CO[C@H]1/C=C/O[C@@]2(C)Oc3c(C)c(O)c4c(O)c(c5c(nc6cc(C)ccn65)c4c3C2=O)NC(=O)/C(C)=C\C=C\[C@H](C)[C@H](O)[C@@H](C)[C@@H](O)[C@@H](C)[C@H](OC(C)=O)[C@@H]1C` [rifaximin], in test [1], the “Prevention of illness by prophylaxis of a Shigella infection (in words)” value was “able to prevent illness”. For the same compound, the “Average % of stool dry weight” value in test [2] (3 months after clearance, 3 day average, P NS) is on record as 61.1 +/− 3.8%. Further, the “Daily variability of Dry Weight” value in test [2] (3 months after clearance, over 3 days, P<0.01) was 4.1 +/− 2.3. In test [2] (C+/R+ versus C+/R−, 3 months after clearance), the “Number of bowel movements normal in form out of 3 days (FIG. 2, in words)” value is “closer to having perfectly normal bowel function”. The “Daily Variability of Stool Consistency” value in test [2] (over 3 days, 3 months after clearance, P<0.01) is reported as “.24 +/− 0.5”. Further, in test [2] (rifaximin prophylaxis, stool form and % wet weight), the “Long term effects of C. jejuni on the bowel (in words)” value is recorded as “reduced the long term effects of C. jejuni on the bowel”. Also, the “Average Stool Consistency (Based on Bristol Stool Scale)” value in test [2] (score 1 normal, 2 soft and poorly formed, 3 watery, 3 day average, 3 months after clearance, P<0.00001) was 1.1 +/− 0.3. The Longest colonization in test [3] (C+/R+ group) was 21 days. Also, in test [3] (C+/R+ group of 54 rats, P=0.016 vs C+/R−), the “Rats with at least one day of detectable C. jejuni in stool (percent)” value was determined as 98%. Further, the “Rats with at least one day of detectable C. jejuni in stool (number)” value in test [3] (of 54 rats in the C+/R+ group, P=0.016 vs C+/R−) was determined as 53 rats. For the same compound, the “Detection of C. jejuni in stool in the acute phase (in words)” value in test [3] (rifaximin prophylaxis, rats) is given as “did not prevent C. jejuni from being detected in stool”. The “Time to first detectable C. jejuni” value in test [3] (stool culture, number of days after gavage, rifaximin 200 mg gavage on 3 days around inoculation, P<0.0001 vs C+/R−) was determined as 1.3 ± 0.4.

Values taken from patent US20110294726A1, “ANTIBIOTIC THERAPY TO REDUCE THE LIKELIHOOD OF DEVELOPING POST-INFECTIOUS IRRITABLE BOWEL SYNDROME” (CEDARS-SINAI MEDICAL CENTER, priority 2009, published 2011).
